Reference: the supplement of paper PMC10733146

Tests used:
Assay in all cases: viability relative to DMSO control (fraction); higher = less drug effect (more viable cells)
Settings in all cases: 48 h
[1] = system: primary ALL patient cells (S088)
In short: (§1)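 The cells were primary mononuclear tumour cells, either fresh or cryopreserved, isolated by Ficoll from blood or bone marrow or derived from processed lymph node. Each well of a 384-well plate received 4 × 10^4 cells onto compounds pre-plated at five concentrations, with one well per concentration. The medium was RPMI-1640 with penicillin/streptomycin, L-glutamine and human serum, and plates stood at 37 °C and 5% CO2 for 48 h. Viability is reported as CellTiter-Glo luminescence relative to the median of 16 inner DMSO wells.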

[2] = system: primary AML patient cells (S006)
In short: as §1

[3] = system: primary AML patient cells (S009)
In short: as §1

[4] = system: primary AML patient cells (S011)
In short: as §1

[5] = system: primary AML patient cells (S021)
In short: as §1

[6] = system: primary AML patient cells (S055)
In short: as §1

[7] = system: primary AML patient cells (S060)
In short: as §1

[8] = system: primary AML patient cells (S081)
In short: as §1

[9] = system: primary B-PLL patient cells (S016)
In short: as §1

[10] = system: primary DLBCL patient cells (S049)
In short: as §1

[11] = system: primary DLBCL patient cells (S076)
In short: as §1

[12] = system: primary DLBCL patient cells (S082)
In short: as §1

[13] = system: primary FL patient cells (S087)
In short: as §1

[14] = system: primary MCL patient cells (S041)
In short: as §1

[15] = system: primary MCL patient cells (S063)
In short: as §1

[16] = system: primary T-NHL patient cells (S058)
In short: as §1

[17] = system: primary T-PLL patient cells (S008)
In short: as §1

`CO[C@H]1C[C@@H]2CC[C@@H](C)[C@@](O)(O2)C(=O)C(=O)N2CCCC[C@H]2C(=O)O[C@H]([C@H](C)C[C@@H]2CC[C@@H](OC(=O)C(C)(CO)CO)[C@H](OC)C2)CC(=O)[C@H](C)/C=C(\C)[C@@H](O)[C@@H](OC)C(=O)[C@H](C)C[C@H](C)/C=C/C=C/C=C/1C` [Temsirolimus] was tested, and the viability ([1]; 0.032 µM) was 0.737, the viability ([1]; 0.16 µM) was 0.688 and the viability ([1]; 0.8 µM) was 0.693. The viability ([1]; 4 µM) was 0.703, the viability ([1]; 20 µM) was 0.576 and the viability ([2]; 0.032 µM) was 0.824. The viability ([2]; 0.16 µM) was 0.746, the viability ([2]; 0.8 µM) was 0.709 and the viability ([2]; 4 µM) was 0.65. For the same compound, the viability ([2]; 20 µM) was 0.415, the viability ([3]; 0.032 µM) was 0.92 and the viability ([3]; 0.16 µM) was 0.774. For the same compound, the viability ([3]; 0.8 µM) was 0.846, the viability ([3]; 4 µM) was 0.769 and the viability ([3]; 20 µM) was 0.533. The viability ([4]; 0.032 µM) was 0.88, the viability ([4]; 0.16 µM) was 0.805 and the viability ([4]; 0.8 µM) was 0.892. It also gave a viability ([4]; 4 µM) of 0.84, a viability ([4]; 20 µM) of 0.498 and a viability ([5]; 0.032 µM) of 0.761. The viability ([5]; 0.16 µM) was 0.846, the viability ([5]; 0.8 µM) was 0.818 and the viability ([5]; 4 µM) was 0.737. It also gave a viability ([5]; 20 µM) of 0.605, a viability ([6]; 0.032 µM) of 0.919 and a viability ([6]; 0.16 µM) of 0.959. It also gave a viability ([6]; 0.8 µM) of 0.957, a viability ([6]; 4 µM) of 0.955 and a viability ([6]; 20 µM) of 0.812. For the same compound, the viability ([7]; 0.032 µM) was 1.05, the viability ([7]; 0.16 µM) was 1.04 and the viability ([7]; 0.8 µM) was 1.04. The viability ([7]; 4 µM) was 1.06, the viability ([7]; 20 µM) was 1 and the viability ([8]; 0.032 µM) was 0.885. It also gave a viability ([8]; 0.16 µM) of 0.884, a viability ([8]; 0.8 µM) of 0.926 and a viability ([8]; 4 µM) of 0.969. For the same compound, the viability ([8]; 20 µM) was 0.869, the viability ([9]; 0.032 µM) was 0.618 and the viability ([9]; 0.16 µM) was 0.598. The viability ([9]; 0.8 µM) was 0.653, the viability ([9]; 4 µM) was 0.614 and the viability ([9]; 20 µM) was 0.561. The viability ([10]; 0.032 µM) was 1.02, the viability ([10]; 0.16 µM) was 0.986 and the viability ([10]; 0.8 µM) was 0.987. The viability ([10]; 4 µM) was 0.966, the viability ([10]; 20 µM) was 0.794 and the viability ([11]; 0.032 µM) was 0.821. It also gave a viability ([11]; 0.16 µM) of 0.753, a viability ([11]; 0.8 µM) of 0.805 and a viability ([11]; 4 µM) of 0.765. It also gave a viability ([11]; 20 µM) of 0.616, a viability ([12]; 0.032 µM) of 0.794 and a viability ([12]; 0.16 µM) of 0.759. The viability ([12]; 0.8 µM) was 0.776, the viability ([12]; 4 µM) was 0.804 and the viability ([12]; 20 µM) was 0.748. For the same compound, the viability ([13]; 0.032 µM) was 0.833, the viability ([13]; 0.16 µM) was 0.813 and the viability ([13]; 0.8 µM) was 0.84. For the same compound, the viability ([13]; 4 µM) was 0.82, the viability ([13]; 20 µM) was 0.713 and the viability ([14]; 0.032 µM) was 0.853. It also gave a viability ([14]; 0.16 µM) of 0.829, a viability ([14]; 0.8 µM) of 0.858 and a viability ([14]; 4 µM) of 0.848. For the same compound, the viability ([14]; 20 µM) was 0.768, the viability ([15]; 0.032 µM) was 0.913 and the viability ([15]; 0.16 µM) was 0.892. The viability ([15]; 0.8 µM) was 0.9, the viability ([15]; 4 µM) was 0.946 and the viability ([15]; 20 µM) was 0.843. It also gave a viability ([16]; 0.032 µM) of 0.902, a viability ([16]; 0.16 µM) of 0.809 and a viability ([16]; 0.8 µM) of 0.904. The viability ([16]; 4 µM) was 0.873, the viability ([16]; 20 µM) was 0.697 and the viability ([17]; 0.032 µM) was 0.982. The viability ([17]; 0.16 µM) was 0.958, the viability ([17]; 0.8 µM) was 0.941 and the viability ([17]; 4 µM) was 0.959. The viability ([17]; 20 µM) was 0.878.
Work on `COc1ccc(C2=N[C@@H](c3ccc(Cl)cc3)[C@@H](c3ccc(Cl)cc3)N2C(=O)N2CCNC(=O)C2)c(OC(C)C)c1` [Nutlin-3a] yielded a viability ([1]; 0.032 µM) of 0.954, a viability ([1]; 0.16 µM) of 0.854 and a viability ([1]; 0.8 µM) of 0.795. The viability ([1]; 4 µM) was 0.355, the viability ([1]; 20 µM) was 0.133 and the viability ([2]; 0.032 µM) was 1.01. It also gave a viability ([2]; 0.16 µM) of 0.917, a viability ([2]; 0.8 µM) of 0.694 and a viability ([2]; 4 µM) of 0.136. For the same compound, the viability ([2]; 20 µM) was 0.0568, the viability ([3]; 0.032 µM) was 0.875 and the viability ([3]; 0.16 µM) was 0.89. It also gave a viability ([3]; 0.8 µM) of 0.744, a viability ([3]; 4 µM) of 0.621 and a viability ([3]; 20 µM) of 0.493. The viability ([4]; 0.032 µM) was 0.973, the viability ([4]; 0.16 µM) was 1.04 and the viability ([4]; 0.8 µM) was 0.8. The viability ([4]; 4 µM) was 0.363, the viability ([4]; 20 µM) was 0.155 and the viability ([5]; 0.032 µM) was 0.972. The viability ([5]; 0.16 µM) was 0.978, the viability ([5]; 0.8 µM) was 0.73 and the viability ([5]; 4 µM) was 0.328. It also gave a viability ([5]; 20 µM) of 0.2, a viability ([6]; 0.032 µM) of 1.03 and a viability ([6]; 0.16 µM) of 1.02. For the same compound, the viability ([6]; 0.8 µM) was 0.977, the viability ([6]; 4 µM) was 0.911 and the viability ([6]; 20 µM) was 0.306. It also gave a viability ([7]; 0.032 µM) of 1.02, a viability ([7]; 0.16 µM) of 0.99 and a viability ([7]; 0.8 µM) of 1.03. It also gave a viability ([7]; 4 µM) of 1.01, a viability ([7]; 20 µM) of 0.974 and a viability ([8]; 0.032 µM) of 0.997. The viability ([8]; 0.16 µM) was 0.979, the viability ([8]; 0.8 µM) was 1.03 and the viability ([8]; 4 µM) was 1.02. The viability ([8]; 20 µM) was 0.783, the viability ([9]; 0.032 µM) was 1.06 and the viability ([9]; 0.16 µM) was 0.946. The viability ([9]; 0.8 µM) was 1.02, the viability ([9]; 4 µM) was 0.733 and the viability ([9]; 20 µM) was 0.101. For the same compound, the viability ([10]; 0.032 µM) was 1.1, the viability ([10]; 0.16 µM) was 0.987 and the viability ([10]; 0.8 µM) was 1.01. The viability ([10]; 4 µM) was 1.04, the viability ([10]; 20 µM) was 0.835 and the viability ([11]; 0.032 µM) was 0.907. It also gave a viability ([11]; 0.16 µM) of 0.909, a viability ([11]; 0.8 µM) of 0.934 and a viability ([11]; 4 µM) of 0.737. For the same compound, the viability ([11]; 20 µM) was 0.357, the viability ([12]; 0.032 µM) was 1.07 and the viability ([12]; 0.16 µM) was 1.02. It also gave a viability ([12]; 0.8 µM) of 1.1, a viability ([12]; 4 µM) of 1.04 and a viability ([12]; 20 µM) of 1.12. It also gave a viability ([13]; 0.032 µM) of 0.984, a viability ([13]; 0.16 µM) of 0.964 and a viability ([13]; 0.8 µM) of 0.931. It also gave a viability ([13]; 4 µM) of 0.816, a viability ([13]; 20 µM) of 0.675 and a viability ([14]; 0.032 µM) of 0.988. It also gave a viability ([14]; 0.16 µM) of 0.976, a viability ([14]; 0.8 µM) of 0.921 and a viability ([14]; 4 µM) of 0.717. It also gave a viability ([14]; 20 µM) of 0.34, a viability ([15]; 0.032 µM) of 0.998 and a viability ([15]; 0.16 µM) of 0.985. The viability ([15]; 0.8 µM) was 0.984, the viability ([15]; 4 µM) was 0.608 and the viability ([15]; 20 µM) was 0.215. It also gave a viability ([16]; 0.032 µM) of 0.946, a viability ([16]; 0.16 µM) of 0.939 and a viability ([16]; 0.8 µM) of 0.941. For the same compound, the viability ([16]; 4 µM) was 0.634, the viability ([16]; 20 µM) was 0.18 and the viability ([17]; 0.032 µM) was 1. For the same compound, the viability ([17]; 0.16 µM) was 0.972, the viability ([17]; 0.8 µM) was 0.963 and the viability ([17]; 4 µM) was 0.583. It also gave a viability ([17]; 20 µM) of 0.205.
